Like-named read-outs stand apart in the source and are kept apart here.
What was measured:
[1] = test system: MDA-MB231 cell lines; assay: MTT cell viability assay (IC50); assay type: cell-based; settings: Homo sapiens, MDA-MB-231, single dose of treatment, 10^-9 to 10^-4 M, absorbance 570 nm
Protocol: (§1) HCT 116 colon cancer and MDA-MB231 breast cancer cell lines are used in cell culture experiments.
Cells were treated with high-glucose DMEM medium (Biosera) supplemented with 10% FBS (Gibco) and 1× penicillin/streptomycin (Multicell). The assay was designed to contain 10,000 cells for each well of 24-well cell culture plates before being treated with inhibitors.
Compound of formula I was dissolved with DMSO as 20 mM stock. 24 hours later, the solution was diluted in DMEM with 10% FBS and final concentration of vehicle DMSO was 0.5% at maximum. Therefore, the vehicle group included 0.5% DMSO concentration in experiments. Intensive cultivation of cells causes a decrease in proliferation capacity.
The MTT cell viability assay was used to detect values of half-maximal inhibitory concentration (IC50). Different concentrations of compound of formula I ranging between 10^−9 to 10^−4 M were tested on MDA-MB231 cell lines with single dose of treatment. 570 nm absorbance values were recorded and IC50 values were calculated by dose response—inhibition curves and nonlinear regression analysis on Graphpad Prism 8 software.

[2] = test system: HCT-116 cells; assay: MTT cell proliferation assay; assay type: cell-based; settings: Homo sapiens, HCT-116, 100 μM, read-out: cell viability decreased
Protocol: as §1
For proliferation inhibition analysis, cells were seeded in 24 well plates at 1×10^4 cells/well cells overnight without drug treatment. During the cell proliferation experiments, we performed five days of treatment in each cell line and repeated the experiments three times to check each experiment. No significant difference in cell viability was observed after the third day. Therefore, cells with different drug concentrations were treated for two days. After 48 hours, MTT was applied to the cells and incubated at 37° C. for 4 hours, formazan was solubilized with DMSO (Sigma-Aldrich, St. Louis, USA) and absorbance was measured at 570 nm.
Molecule concentration was 100 μM, the lower concentrations were not shown. Vehicle represents the groups treated with only %0,5 DMSO and Untreated represents no molecule treated group. Molecule responses were evaluated by cell viability which is obtained by spectrophotometric analysis of cells upon MTT treatment at 12 h, 24 h, 48 h and 72 h. […] Statistical significance in graphs was determined by comparing each treatment group with DMSO control using ANOVA testing and significance is considered as p<0.001 (FIG. 2).
As a result, cell viability decreased by 40% at the end of the first day and reached 60% at the end of the third day. […]

[3] = test system: HCT-116 cells; assay: Microscopic evaluation of cells (proliferation, apoptotic morphology); assay type: cell-based
Protocol: Cells were photographed and observed under microscope for three days.
As a result, cell viability decreased by 40% at the end of the first day and reached 60% at the end of the third day. Any cell proliferation change and apoptotic cell morphology were not observed in the untreated and vehicle groups. Moreover, differences in cell morphology were also observed. […] Upon treatment with the compound of formula I according to present invention with 100 μM concentration, cells having the morphology of apoptotic cells were observed starting from the 3rd hour.

[4] = target: MDM2 protein (Homo sapiens, UniProt Q00987); settings: background statement; cited from earlier work
Chain of MDM2 protein (Q00987 whole entry, species assumed): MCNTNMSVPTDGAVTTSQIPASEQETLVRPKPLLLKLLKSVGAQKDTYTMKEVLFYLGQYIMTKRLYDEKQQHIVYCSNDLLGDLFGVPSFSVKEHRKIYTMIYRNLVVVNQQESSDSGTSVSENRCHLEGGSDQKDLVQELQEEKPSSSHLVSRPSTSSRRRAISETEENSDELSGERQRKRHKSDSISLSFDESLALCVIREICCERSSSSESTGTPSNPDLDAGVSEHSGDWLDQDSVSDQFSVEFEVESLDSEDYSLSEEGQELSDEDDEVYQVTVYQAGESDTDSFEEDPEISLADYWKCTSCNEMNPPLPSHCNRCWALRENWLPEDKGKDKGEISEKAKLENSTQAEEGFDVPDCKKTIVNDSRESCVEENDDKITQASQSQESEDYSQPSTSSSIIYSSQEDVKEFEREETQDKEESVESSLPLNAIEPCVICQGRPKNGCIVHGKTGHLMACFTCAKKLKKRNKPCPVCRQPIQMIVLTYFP

Row | Compound | IC50 [1] | cytotoxicity at 100 µM ([2]; at the end of the first day) | cytotoxicity at 100 µM ([2]; at the end of the third day) | hour from which cells having the morphology of apoptotic cells were observed ([3]; 100 μM concentration) | apoptotic activity (onset, microscopy) ([3]; FIG. 3) | proliferation and cell structures under microscope ([3]; observed for three days, vs vehicle and untreated, FIG. 3) | binding affinity to MDM2 protein relative to a natural p53 peptide [4]
1 | O=C(CCc1ccccc1Cl)NC(CC1CNc2ccccc21)C(=O)O (stereo not shown) [compound of formula I] | 41 µM | 40% | 60% | 3 hour | clear apoptotic activity from the twelfth hour | reduced proliferation and showed apoptotic cell structures | 
2 | MI-319 |  |  |  |  |  |  | 500 fold

— patent US20230067644A1, “DRG-MDM2-3 FOR USE AS A NOVEL MOUSE DOUBLE MINUTE 2 (MDM2) INHIBITOR” (BAHCESEHIR UNIVERSITESI, priority 2020, published 2023)
